# Test results as given in patent US9107919B2, “Pharmaceutical compositions comprising imidazoquinolin(amines) and derivatives thereof suitable for local administration” (priority 2009, dated 2015).
# What was measured:
# [1] = Imiquimod solubility in different solvent systems; format: physicochemical
# Description: The dispersions have been centrifuged at 10,000 rpm for 10 minutes and the liquid phases collected and stored at room temperature until analysed. The imiquimod concentration in these solutions was spectrophotometrically (λ=319 nm) determined after appropriated dilution.
# [2] = Preliminary solubility tests of imiquimod (visual inspection); format: physicochemical
# Description: 48 mg of imiquimod was weighed and added of hydrochloric acid solutions at different concentrations: in particular 48.2 mg imiquimod were treated with 8 ml hydrochloric acid 0.1 N, 48.6 mg imiquimod with 9 ml hydrochloric acid 0.2 N and 48.4 mg imiquimod with 8 ml hydrochloric acid 2 N. After vortexing for 5 minutes, the samples were visually inspected.
# A weighed amount of drug (48.2 mg) was dissolved under agitation in 2 ml glacial acetic acid. After complete solubilisation a weighed aliquot of imiquimod (150 mg) was added to this solution in order to visually evaluate the maximum concentration of dissolved drug.
# The solubility of imiquimod at different pH values was determined. Two different procedures were used. The drug was dispersed in the buffer (without acetic acid as co-solvent). 72 mg imiquimod were dispersed with 10 ml citrate buffer, 155 mg imiquimod in 10 ml phosphate buffer and 192 mg in 10 ml acetate buffer. After vortexing for 5 minutes, each sample was visually inspected.
# A visual inspection of the systems was carried out.
# [3] = Solubility of imiquimod in short-chain acids, cyclodextrin and surfactants (spectrophotometry); format: physicochemical
# Description: Some inorganic and organic acids were considered as potential solubilizers of the drug. 100 mg imiquimod were dissolved in 10 ml of phosphoric acid 0.1 M, succinic acid 0.1 M, citric acid 0.1 M, acetic acid 0.01 M, 0.05 M, 0.1 M and lactic acid 0.01 M, 0.05 M, 0.088 M, and 0.1 M. These systems, after filtration, were spectrophotometrically analyzed for imiquimod and their pH was measured.
# Exactly weighed amounts of imiquimod (200 mg) and hydroxypropyl-β-cyclodextrin (HP-β-CD) (4000 mg) were dissolved in 10 ml of: • water • water at pH 5.0 (corrected with HCl) • water at pH 3.0 (corrected with HCl) • lactic acid solution (0.1 M)
# After shaking for 24 hours and filtration (0.22 μm Millipore membrane filter) the solubilised imiquimod was spectrophotometrically determined. The solution pH was also measured.
# Imiquimod (200 mg) was weighed and mixed with different amounts of surfactants (Tween 20, Tween 80, Cremophor EL or Pluronic F-68) in order to prepare formulations containing 0.5, 2.5 and 5% of surface active agent. Each mixture was added to 10 ml of lactic acid (0.1 M), gently shaken for 24 hours, filtered and analyzed by spectrophotometry and submitted to pH measurement.
# The imiquimod present in solution in compositions prepared with different acids and surfactants is spectrophotometrically determined and is shown in Table 5 together with the pH value.
# [4] = cited from earlier work
# [5] = Pharmacokinetics of intravesical imiquimod in pigs (plasma, urine); format: in vivo, pig; details: female, Dutch Landrace, other: intravesical instillation, 50 mL of imiquimod 0.5% solution
# Description: Female pigs (Dutch Landrace) were used for this study. […] The pigs were divided into four groups of six animals. Experimental procedures were performed under general anesthesia. Premedication contained a mixture of 10 mg/kg ketamine and 0.5 to 1.0 mg/kg midazolam i.m. in one shot. Sedation maintenance was done by the same mixture in half the dosage every 45 minutes. The bladder was emptied without suction trauma prior to the start of treatment (via 12 French Foley catheter) and 50 mL of the study drug was instilled intravesically. […] The catheter was clamped and the instillation fluid was retained in the bladder for 60 minutes, after which the bladder was emptied. The bladder was not rinsed after emptying.
# Blood samples for pharmacokinetic analysis and cytokine measurement were collected in 4 mL lithium heparin tubes with gel divider before instillation of the study drug and 15, 30, 60, 120, 240 and 480 minutes after the beginning of drug instillation and also just before cystectomy. The samples were transferred on ice to the laboratory for plasma processing within 30 minutes. […]
# The post-treatment evacuated bladder content and the evacuated urine just before necropsy were collected for analysis of imiquimod concentration. […] Imiquimod concentrations in plasma and urine was determined by CHIMAN s.r.1. […]
# [6] = dissolved in glacial acetic acid, then diluted with buffers
# [7] = HP-β-CD 40.0% (water at pH 3.0 corrected with HCl)
# [8] = HP-β-CD 40.0% (water at pH 5.0 corrected with HCl)
# [9] = lactic acid 0.100 M + Cremophor EL 0.5%
# [10] = lactic acid 0.100 M + Cremophor EL 2.5%
# [11] = lactic acid 0.100 M + Cremophor EL 5.0%
# [12] = lactic acid 0.100 M + HP-β-CD 40.0%
# [13] = lactic acid 0.100 M + Pluronic F68 0.5%
# [14] = lactic acid 0.100 M + Pluronic F68 2.5%
# [15] = lactic acid 0.100 M + Pluronic F68 5.0%
# [16] = lactic acid 0.100 M + Tween 20 0.5%
# [17] = lactic acid 0.100 M + Tween 20 2.5%
# [18] = lactic acid 0.100 M + Tween 20 5.0%
# [19] = lactic acid 0.100 M + Tween 80 0.5%
# [20] = lactic acid 0.100 M + Tween 80 2.5%
# [21] = lactic acid 0.100 M + Tween 80 5.0%
compound,measurement,setting,value
"CC(C)Cn1cnc2c(N)nc3ccccc3c21 [imiquimod, 1-isobutyl-1H-imidazo[4,5-c]quinolin-4-amine]",pH,[1]; 5% CD LA 01,3.90
same,imiquimod solubility,[1]; 5% CD LA 01 (5% HP-β-CD in 0.1 M lactic acid),1.23 % w/w
same,imiquimod solubility,[1]; 5% CD-16% PF127 LA 01,1.15 % w/w
same,pH,[1]; 5% CD-16% PF127 LA 01,4.05
same,pH,[1]; 5% PF127 LA 01,3.92
same,imiquimod solubility,[1]; 5% PF127 LA 01 (5% Poloxamer 407 in 0.1 M lactic acid),1.19 % w/w
same,pH,[1]; 15% CD LA 01,4.03
same,imiquimod solubility,[1]; 15% CD LA 01 (15% HP-β-CD in 0.1 M lactic acid),1.37 % w/w
same,imiquimod solubility,[1]; 15% CD-16% PF127 LA 01,1.22 % w/w
same,pH,[1]; 15% CD-16% PF127 LA 01,4.25
same,imiquimod solubility,[1]; 16% PF127 LA 01,1.10 % w/w
same,pH,[1]; 16% PF127 LA 01,3.99
same,imiquimod solubility,[1]; 20% PF127 LA 01,1.04 % w/w
same,pH,[1]; 20% PF127 LA 01,4.16
same,imiquimod solubility,[1]; DMSO,0.09 % w/w
same,imiquimod solubility,[1]; Glutamic acid 0.072M,0.54 % w/w
same,pH,[1]; Glutamic acid 0.072M,3.95
same,imiquimod solubility,[1]; Glycolic acid 0.1M,0.68 % w/w
same,pH,[1]; Glycolic acid 0.1M,3.82
same,pH,[1]; LA 0.025M,3.93
same,imiquimod solubility,"[1]; LA 0.025M, 25° C., 24 h",0.33 % w/w
same,pH,[1]; LA 0.05M,3.81
same,imiquimod solubility,"[1]; LA 0.05M, 25° C., 24 h",0.58 % w/w
same,pH,[1]; LA 0.1M,3.73
same,imiquimod solubility,"[1]; LA 0.1M, 25° C., 24 h",1.18 % w/w
same,pH,[1]; LA 0.2M,3.52
same,imiquimod solubility,"[1]; LA 0.2M, 25° C., 24 h",2.20 % w/w
same,imiquimod solubility,[1]; N-Methyl-pyrrolidone,0.16 % w/w
same,imiquimod solubility,[1]; PEG 400,0.03 % w/w
same,imiquimod solubility,[1]; Tartaric acid 0.1M,0.01 % w/w
same,pH,[1]; Tartaric acid 0.1M,2.48
same,solubility in buffers (visual),"[2]; citrate, phosphate, acetate buffer, without acetic acid",slightly soluble
same,appearance after dilution,[2]; [6],"clear, transparent solutions"
same,pH of the systems,[2]; [6],lower than 3.6
same,solubility,"[2]; glacial (100%) acetic acid, organic solvent or mixture, thermodynamic from solid, room temperature",100 mg/mL
same,solubility (visual),"[2]; hydrochloric acid 0.1 N, 0.2 N and 2 N",slightly soluble
same,solubility in glacial (100%) acetic acid,"[2]; room temperature, visual",10 % (w/v)
same,imiquimod in solution,[3]; [7],0.655 % w/v
same,pH,[3]; [7],3.05
same,imiquimod in solution,[3]; [8],0.143 % w/v
same,pH,[3]; [8],5.17
same,imiquimod in solution,"[3]; HP-β-CD 40.0%, no acid (water)",0.004 % w/v
same,pH,"[3]; HP-β-CD 40.0%, no acid (water)",7.09
same,imiquimod in solution,[3]; acetic acid 0.010 M,0.070 % w/v
same,pH,[3]; acetic acid 0.010 M,4.37
same,imiquimod in solution,[3]; acetic acid 0.050 M,0.220 % w/v
same,pH,[3]; acetic acid 0.050 M,4.08
same,imiquimod in solution,[3]; acetic acid 0.100 M,0.430 % w/v
same,pH,[3]; acetic acid 0.100 M,3.97
same,imiquimod in solution,[3]; citric acid 0.100 M,0.010 % w/v
same,pH,[3]; citric acid 0.100 M,2.10
same,imiquimod in solution,[3]; lactic acid 0.010 M,0.130 % w/v
same,pH,[3]; lactic acid 0.010 M,4.20
same,imiquimod in solution,[3]; lactic acid 0.050 M,0.530 % w/v
same,pH,[3]; lactic acid 0.050 M,3.90
same,imiquimod in solution,[3]; lactic acid 0.088 M,0.840 % w/v
same,pH,[3]; lactic acid 0.088 M,3.71
same,imiquimod in solution,[3]; lactic acid 0.100 M,0.980 % w/v
same,pH,[3]; lactic acid 0.100 M,3.61
same,imiquimod in solution,[3]; [9],0.881 % w/v
same,pH,[3]; [9],3.90
same,imiquimod in solution,[3]; [10],0.989 % w/v
same,pH,[3]; [10],3.87
same,imiquimod in solution,[3]; [11],0.969 % w/v
same,pH,[3]; [11],3.88
same,imiquimod in solution,[3]; [12],1.141 % w/v
same,pH,[3]; [12],4.46
same,imiquimod in solution,[3]; [13],1.048 % w/v
same,pH,[3]; [13],3.85
same,imiquimod in solution,[3]; [14],1.088 % w/v
same,pH,[3]; [14],3.87
same,imiquimod in solution,[3]; [15],0.972 % w/v
same,pH,[3]; [15],3.89
same,imiquimod in solution,[3]; [16],0.945 % w/v
same,pH,[3]; [16],3.88
same,imiquimod in solution,[3]; [17],1.004 % w/v
same,pH,[3]; [17],3.86
same,imiquimod in solution,[3]; [18],1.001 % w/v
same,pH,[3]; [18],3.89
same,imiquimod in solution,[3]; [19],0.997 % w/v
same,pH,[3]; [19],3.83
same,imiquimod in solution,[3]; [20],1.009 % w/v
same,pH,[3]; [20],3.82
same,imiquimod in solution,[3]; [21],0.872 % w/v
same,pH,[3]; [21],3.82
same,imiquimod in solution,[3]; phosphoric acid 0.100 M,0.159 % w/v
same,pH,[3]; phosphoric acid 0.100 M,1.80
same,imiquimod in solution,[3]; succinic acid 0.100 M,0.079 % w/v
same,pH,[3]; succinic acid 0.100 M,2.94
same,pKa,[4],about 4
same,concentration at 24 h,"[5]; pig, urine, after 24 hours, all imiquimod groups, read-out: imiquimod levels in urine",< 5000 ng/mL
same,concentration at 8 h,"[5]; plasma, after eight hours, any pig",< 2.1 ng/mL
